Tested on: HepG2 cells
Experiment: In vitro De Novo Lipogenesis (DNL) assay, 13C-acetate incorporation into palmitic acid
Format: cell-based
Details: 1 hour preincubation, 24 hours with 10 mM 13C-labeled acetate
Protocol: De Novo Lipogenesis (DNL) was measured in vitro in HepG2 cells by quantifying the incorporation of ^13C-labeled acetate into palmitic acid.
HepG2 cells were plated in growth medium (DMEM (Corning cat #15-018-CM) supplemented with 10% FBS (HyClone cat #SH30071-03), and 1× penicillin, streptomycin, glutamine (Corning cat #30-009-CI)) at 10,000 cells/well in a 384-well cell culture-treated plate (Greiner cat #781091). The cells were then incubated overnight at 37° C., 5% CO2. The next day, the cells were washed twice with sterile DPBS (Corning cat #21-031-CM) and the culture medium was changed to fresh growth medium. The compounds of interest were dosed to cells, followed by a 1 hour incubation at 37° C., 5% CO2. ^13C-labeled acetate (Sigma-Aldrich cat #279315-1G) was added to the culture medium at a concentration of 10 mM and the cells were incubated for 24 hours at 37° C., 5% CO2.
In order to analyze the lipid content of the HepG2 cells, the culture medium was removed and the cells were lysed by adding 30 μL of 0.1 M NaOH. After 5 minutes of incubation at room temperature, 15 μL of cell lysate was transferred to a 384-well deep-well plate (Sigma-Aldrich cat #BR701355-48EA) containing 15 μL of 7.3% KOH in ethanol and mixed. This plate was sealed and incubated at 70° C. for 4 hours to hydrolyze the lipids to free fatty acids. 100 μL of acetonitrile was then added and the plate was spun at 3,700 g for 20 minutes to separate the organic and aqueous phases. 50 μL from the top (organic) phase was transferred to a new 384-well plate (NUNC cat #264573) and the samples were analyzed by mass spectrometry using a RapidFire coupled to a QTOF mass spectrometer. The sum of the area under curve (AUC) for palmitate containing 3 to 7 ^13C was normalized with the AUC of oleate and plotted against compound concentration to determine the potency of ACC inhibitors. […]

EC50 (Homo sapiens) [nM] | EC50 [nM] | Compound
24.6 |  | Cc1c(-n2nccn2)sc2c1c(=O)n(C1(C(=O)NS(=O)(=O)C3(C)CC3)CC1)c(=O)n2C[C@H](O[C@@H]1C[C@H]2CC[C@@H](C1)O2)c1ccccc1OC(F)F [Example 26, 1-(1-((R)-2-(((1R,3s,5S)-8-oxabicyclo[3.2.1]octan-3-yl)oxy)-2-(2-(difluoromethoxy)phenyl)ethyl)-5-methyl-2,4-dioxo-6-(2H-1,2,3-triazol-2-yl)-1,4-dihydrothieno[2,3-d]pyrimidin-3(2H)-yl)-N-((1-methylcyclopropyl)sulfonyl)cyclopropane-1-carboxamide]
7 |  | Cc1c(-c2ncco2)sc2c1c(=O)n(C(C)(C)C(=O)NS(=O)(=O)C(C)(C)C)c(=O)n2C[C@H](O[C@@H]1C[C@H]2CC[C@@H](C1)O2)c1cc(F)ccc1OC(F)F [Example 8, 2-(1-((R)-2-(((1R,3s,5S)-8-oxabicyclo[3.2.1]octan-3-yl)oxy)-2-(2-(difluoromethoxy)-5-fluorophenyl)ethyl)-5-methyl-6-(oxazol-2-yl)-2,4-dioxo-1,4-dihydrothieno[2,3-d]pyrimidin-3(2H)-yl)-N-(tert-butylsulfonyl)-2-methylpropanamide]
33.1 |  | COCCOc1ccccc1[C@H](Cn1c(=O)n(C2(C(=O)NS(=O)(=O)C3(C)CC3)CC2)c(=O)c2c(C)c(-n3nccn3)sc21)O[C@@H]1C[C@H]2CC[C@@H](C1)O2 [Example 30, 1-(1-((R)-2-(((1R,3s,5S)-8-oxabicyclo[3.2.1]octan-3-yl)oxy)-2-(2-(2-methoxyethoxy)phenyl)ethyl)-5-methyl-2,4-dioxo-6-(2H-1,2,3-triazol-2-yl)-1,4-dihydrothieno[2,3-d]pyrimidin-3(2H)-yl)-N-((1-methylcyclopropyl)sulfonyl)cyclopropane-1-carboxamide]
882 |  | Cc1c(-c2ncco2)sc2c1c(=O)n(C1(C(=O)NS(=O)(=O)C(C)(C)C)CC1)c(=O)n2C[C@H](O[C@@H]1C[C@H]2CC[C@@H](C1)O2)c1ccccc1OC(F)F [Example 13, 1-(1-((R)-2-(((1R,3s,5S)-8-oxabicyclo[3.2.1]octan-3-yl)oxy)-2-(2-(difluoromethoxy)phenyl)ethyl)-5-methyl-6-(oxazol-2-yl)-2,4-dioxo-1,4-dihydrothieno[2,3-d]pyrimidin-3(2H)-yl)-N-(tert-butylsulfonyl)cyclopropane-1-carboxamide]
1.4 |  | COc1ccc(F)cc1[C@H](Cn1c(=O)n(C(C)(C)C(=O)NS(=O)(=O)C2(C)CC2)c(=O)c2c(C)c(-c3ncsn3)sc21)O[C@@H]1C[C@H]2CC[C@@H](C1)O2 [Example 31, 2-(1-((R)-2-(((1R,3s,5S)-8-oxabicyclo[3.2.1]octan-3-yl)oxy)-2-(5-fluoro-2-methoxyphenyl)ethyl)-5-methyl-2,4-dioxo-6-(1,2,4-thiadiazol-3-yl)-1,4-dihydrothieno[2,3-d]pyrimidin-3(2H)-yl)-2-methyl-N-((1-methylcyclopropyl)sulfonyl)propanamide]
24.3 |  | COCCOc1ccccc1[C@H](Cn1c(=O)n(C(C)(C)C(=O)NS(=O)(=O)C2(C)CC2)c(=O)c2c(C)c(-n3nccn3)sc21)O[C@@H]1C[C@H]2CC[C@@H](C1)O2 [Example 24, 2-(1-((R)-2-(((1R,3s,5S)-8-oxabicyclo[3.2.1]octan-3-yl)oxy)-2-(2-(2-methoxyethoxy)phenyl)ethyl)-5-methyl-2,4-dioxo-6-(2H-1,2,3-triazol-2-yl)-1,4-dihydrothieno[2,3-d]pyrimidin-3(2H)-yl)-2-methyl-N-((1-methylcyclopropyl)sulfonyl)propanamide]
66.2 |  | Cc1c(-c2ncco2)sc2c1c(=O)n(C1(C(=O)NS(=O)(=O)C(C)(C)C)CC1)c(=O)n2C[C@H](O[C@@H]1C[C@H]2CC[C@@H](C1)O2)c1cc(F)ccc1OC(F)F [Example 11, 1-(1-((R)-2-(((1R,3s,5S)-8-oxabicyclo[3.2.1]octan-3-yl)oxy)-2-(2-(difluoromethoxy)-5-fluorophenyl)ethyl)-5-methyl-6-(oxazol-2-yl)-2,4-dioxo-1,4-dihydrothieno[2,3-d]pyrimidin-3(2H)-yl)-N-(tert-butylsulfonyl)cyclopropane-1-carboxamide]
1 |  | COc1ccccc1[C@H](Cn1c(=O)n(C(C)(C)C(=O)NS(=O)(=O)C2(C)CC2)c(=O)c2c(C)c(-n3nccn3)sc21)O[C@@H]1C[C@H]2CC[C@@H](C1)O2 [Example 19, 2-(1-((R)-2-(((1R,3s,5S)-8-oxabicyclo[3.2.1]octan-3-yl)oxy)-2-(2-methoxyphenyl)ethyl)-5-methyl-2,4-dioxo-6-(2H-1,2,3-triazol-2-yl)-1,4-dihydrothieno[2,3-d]pyrimidin-3(2H)-yl)-2-methyl-N-((1-methylcyclopropyl)sulfonyl)propanamide]
9.9 |  | COc1ccccc1[C@H](Cn1c(=O)n(C(C)(C)C(=O)NS(=O)(=O)C2(C)CC2)c(=O)c2c(C)c(C#N)sc21)O[C@@H]1C[C@H]2CC[C@@H](C1)O2 [Example 32, 2-(1-((R)-2-(((1R,3s,5S)-8-oxabicyclo[3.2.1]octan-3-yl)oxy)-2-(2-methoxyphenyl)ethyl)-6-cyano-5-methyl-2,4-dioxo-1,4-dihydrothieno[2,3-d]pyrimidin-3(2H)-yl)-2-methyl-N-((1-methylcyclopropyl)sulfonyl)propanamide]
5.9 |  | COc1ccccc1[C@H](Cn1c(=O)n(C(C)(C)C(=O)NS(=O)(=O)C2(C(F)F)CC2)c(=O)c2c(C)c(-c3ncco3)sc21)O[C@@H]1C[C@H]2CC[C@@H](C1)O2 [Example 2, 2-(1-((R)-2-(((1R,3s,5S)-8-oxabicyclo[3.2.1]octan-3-yl)oxy)-2-(2-methoxyphenyl)ethyl)-5-methyl-6-(oxazol-2-yl)-2,4-dioxo-1,4-dihydrothieno[2,3-d]pyrimidin-3(2H)-yl)-N-((1-(difluoromethyl)cyclopropyl)sulfonyl)-2-methylpropanamide]
916 |  | Cc1c(-n2nccn2)sc2c1c(=O)n(C1(C(=O)NS(=O)(=O)C(C)(C)C)CC1)c(=O)n2C[C@H](O[C@H]1C[C@H]2CC[C@@H](C1)O2)c1ccccc1OC(F)F [Example 22, 1-(1-((R)-2-(((1R,3r,5S)-8-oxabicyclo[3.2.1]octan-3-yl)oxy)-2-(2-(difluoromethoxy)phenyl)ethyl)-5-methyl-2,4-dioxo-6-(2H-1,2,3-triazol-2-yl)-1,4-dihydrothieno[2,3-d]pyrimidin-3(2H)-yl)-N-(tert-butylsulfonyl)cyclopropane-1-carboxamide]
268 |  | Cc1c(-n2nccn2)sc2c1c(=O)n(C1(C(=O)NS(=O)(=O)C3(C)CC3)CC1)c(=O)n2C[C@H](O[C@H]1C[C@H]2CC[C@@H](C1)O2)c1ccccc1OC(F)F [Example 23, 1-(1-((R)-2-(((1R,3r,5S)-8-oxabicyclo[3.2.1]octan-3-yl)oxy)-2-(2-(difluoromethoxy)phenyl)ethyl)-5-methyl-2,4-dioxo-6-(2H-1,2,3-triazol-2-yl)-1,4-dihydrothieno[2,3-d]pyrimidin-3(2H)-yl)-N-((1-methylcyclopropyl)sulfonyl)cyclopropane-1-carboxamide]
 | 1.5 | 2-(1-((R)-2-(((1R,3s,5S)-8-oxabicyclo[3.2.1]octan-3-yl)oxy)-2-(2-methoxyphenyl)ethyl)-5-methyl-6-(oxazol-2-yl)-2,4-dioxo-1,4-dihydrothieno[2,3-d]pyrimidin-3 (2H)-yl)-N-(tert-butylsulfonyl)-2-methylpropanamide [Example 3]
0.9 |  | Cc1c(-n2nccn2)sc2c1c(=O)n(C1(C(=O)NS(=O)(=O)C3(C)CC3)CC1)c(=O)n2C[C@H](O[C@@H]1C[C@H]2CC[C@@H](C1)O2)c1cc(F)ccc1OC(F)F [Example 28, 1-(1-((R)-2-(((1R,3s,5S)-8-oxabicyclo[3.2.1]octan-3-yl)oxy)-2-(2-(difluoromethoxy)-5-fluorophenyl)ethyl)-5-methyl-2,4-dioxo-6-(2H-1,2,3-triazol-2-yl)-1,4-dihydrothieno[2,3-d]pyrimidin-3(2H)-yl)-N-((1-methylcyclopropyl)sulfonyl)cyclopropane-1-carboxamide]
7.6 |  | Cc1c(-c2ncco2)sc2c1c(=O)n(C(C)(C)C(=O)NS(=O)(=O)C1CC1)c(=O)n2C[C@H](O[C@@H]1C[C@H]2CC[C@@H](C1)O2)c1cc(F)ccc1OC(F)F [Example 7, 2-(1-((R)-2-(((1R,3s,5S)-8-oxabicyclo[3.2.1]octan-3-yl)oxy)-2-(2-(difluoromethoxy)-5-fluorophenyl)ethyl)-5-methyl-6-(oxazol-2-yl)-2,4-dioxo-1,4-dihydrothieno[2,3-d]pyrimidin-3(2H)-yl)-N-(cyclopropylsulfonyl)-2-methylpropanamide]
